Measurements: publication PMC10958880, “Pocket Crafter: a 3D generative modeling based workflow for the rapid generation of hit molecules in drug discovery” (Journal of Cheminformatics, 2024)

Experiments:
Format in all cases: binding
WDR5 [1] = target: T1, WDR5 (Homo sapiens, UniProt P61964); assay: DSF (Tm shift -4.[…] °C) plus WDR5-MYC peptide HTRF displacement with counter assay; design: full-length WDR5 (DSF); N-His, 1–334 (HTRF)
WDR5 [2] = target: T1, WDR5; assay: DSF (Tm shift -1.[…] °C) plus WDR5-MYC peptide HTRF displacement with counter assay; design: full-length WDR5 (DSF); N-His, 1–334 (HTRF)
WDR5 [3] = target: T1, WDR5; assay: WDR5-MYC peptide HTRF dose response, inactive in counter assay; design: N-His, 1–334; with MYC MbIIIb peptide (256–268 a.a.)

In the case of `O=C(c1cc2ccccc2[nH]1)N1CCn2ncc(N3C[C@@H](CO)OC3=O)c2C1` [PC-1], the IC50 (WDR5 [1]) is reported as 35.6 µM.

With `C[C@H]1Cc2noc(N3CCCCC3=O)c2CN1C(=O)c1cc2ccccc2[nH]1` [PC-2] the IC50 (WDR5 [2]) was 27.5 µM.

Molecule `CC1(C)CN(c2cnn3c2CN(C(=O)c2cc4c([nH]2)CCCC4)CC3)C(=O)O1` [PC-3] has an IC50 (WDR5 [3]) of 28.5 µM.
